Broadly, the IC50 is the point on the concentration scale where inhibition reaches its midpoint. High values mean weaker potency, low ones greater potency.

The record followed here is US20230416203A1, “POTENT AND SELECTIVE INHIBITORS OF THE CALCIUM-ACTIVATED POTASSIUM CHANNEL, KCA3.1, FOR USE AS PLATFORM THERAPEUTICS” (priority 2020, published 2023).

Molecules are shown by their SMILES. “Also recorded” adds a separate entry of the source. Where two headings read alike, the source gives them in different places. Some results are limits rather than exact numbers.

One series deals with T1, KV3.1 (Mus musculus, UniProt P15388).
T1 construct: expressed in transfected cells; host or cells: L929
T1 sequence (P15388 1-511): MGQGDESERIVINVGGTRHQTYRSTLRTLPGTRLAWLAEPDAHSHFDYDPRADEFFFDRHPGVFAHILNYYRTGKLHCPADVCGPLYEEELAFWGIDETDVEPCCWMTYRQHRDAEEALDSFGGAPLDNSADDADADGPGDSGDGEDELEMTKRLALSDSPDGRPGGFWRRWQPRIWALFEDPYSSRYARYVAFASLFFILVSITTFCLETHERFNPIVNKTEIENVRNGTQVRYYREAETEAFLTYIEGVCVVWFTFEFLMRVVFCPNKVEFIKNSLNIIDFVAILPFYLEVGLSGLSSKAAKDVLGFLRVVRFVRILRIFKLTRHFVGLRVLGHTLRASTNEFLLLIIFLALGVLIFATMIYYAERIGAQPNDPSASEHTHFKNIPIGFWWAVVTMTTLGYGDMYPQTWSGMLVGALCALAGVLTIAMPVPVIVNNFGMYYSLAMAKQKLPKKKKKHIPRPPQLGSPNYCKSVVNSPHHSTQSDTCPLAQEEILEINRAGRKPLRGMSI
The series can be described thus: Potassium channels patch-clamp (QPatch), KV3.1. It counts as cell-based. The method, then:
(§1) The effects of Group 4 compounds on related potassium channels were evaluated by patch-clamp using a QPatch HTX automated electrophysiology platform (Sophion, Denmark). The giga-seal and whole-cell requirements for the automated electrophysiology were the following: minimum seal resistance=0.1 GO, holding potential=−80 mV, holding pressure=−20 mbar; and positioning pressure=−70 mbar.

The target in the next series is T2, KV4.2 (Rattus norvegicus, UniProt Q63881).
T2 construct: expressed in transfected cells; host or cells: LTK
T2 sequence (Q63881 1-630): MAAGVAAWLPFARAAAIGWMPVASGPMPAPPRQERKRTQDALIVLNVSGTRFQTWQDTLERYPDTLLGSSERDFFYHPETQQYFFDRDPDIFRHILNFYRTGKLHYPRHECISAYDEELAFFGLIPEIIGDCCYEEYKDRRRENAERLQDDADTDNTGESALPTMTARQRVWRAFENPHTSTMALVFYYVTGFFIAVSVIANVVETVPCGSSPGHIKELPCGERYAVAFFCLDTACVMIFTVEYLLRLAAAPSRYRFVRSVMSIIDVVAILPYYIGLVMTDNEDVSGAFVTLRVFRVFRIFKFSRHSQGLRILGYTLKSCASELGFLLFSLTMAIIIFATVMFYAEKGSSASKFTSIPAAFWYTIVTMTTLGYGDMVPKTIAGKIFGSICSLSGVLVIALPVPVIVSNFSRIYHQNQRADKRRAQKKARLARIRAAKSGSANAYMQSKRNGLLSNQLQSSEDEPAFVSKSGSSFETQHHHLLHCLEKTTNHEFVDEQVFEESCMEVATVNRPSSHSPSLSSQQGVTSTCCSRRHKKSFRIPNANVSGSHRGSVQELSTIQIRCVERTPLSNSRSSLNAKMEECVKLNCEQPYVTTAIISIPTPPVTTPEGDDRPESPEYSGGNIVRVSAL
Put plainly: Potassium channels patch-clamp (QPatch), KV4.2. Type of series: cell-based. The method, then:
as §1
On the technique in general: Patch clamp records ionic current or voltage across a cell membrane.

The next series has as its target T3, KV11.1 (hERG) (Homo sapiens, UniProt Q12809).
T3 construct: host or cells: CHO
Put plainly: Potassium channels patch-clamp (QPatch), KV11.1 (hERG). It counts as cell-based. The method, then:
as §1

In another series the target is T4, CYP-2D6 (Homo sapiens, UniProt P10635).
T4 construct: from tissue
T4 sequence (P10635 whole entry): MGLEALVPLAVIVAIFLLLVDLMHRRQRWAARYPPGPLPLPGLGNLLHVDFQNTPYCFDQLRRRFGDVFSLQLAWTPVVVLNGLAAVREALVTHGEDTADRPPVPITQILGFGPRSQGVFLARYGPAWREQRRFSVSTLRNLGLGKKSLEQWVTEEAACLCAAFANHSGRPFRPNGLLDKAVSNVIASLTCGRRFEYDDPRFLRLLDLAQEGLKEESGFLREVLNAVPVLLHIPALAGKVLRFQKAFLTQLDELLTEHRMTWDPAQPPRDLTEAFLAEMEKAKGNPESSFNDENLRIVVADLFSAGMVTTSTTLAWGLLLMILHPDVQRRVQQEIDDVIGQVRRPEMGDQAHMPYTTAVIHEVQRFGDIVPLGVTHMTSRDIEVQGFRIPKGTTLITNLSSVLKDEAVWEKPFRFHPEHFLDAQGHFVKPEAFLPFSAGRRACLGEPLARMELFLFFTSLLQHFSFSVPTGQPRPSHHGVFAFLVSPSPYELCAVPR
The series can be described thus: Cytochrome P450 enzymes inhibition assay, CYP-2D6. Type of series: in vitro ADME. As to conditions: for CYP IC50/KCa3.1 IC50: CYP-2D6. An excerpt:
The metabolite formation for each substrate under the above conditions was estimated using the following formula: Percent inhibition=[1−(test area ratio/control area ratio)]×100.

A further series concerns the target CaV1.2 channel (Homo sapiens, UniProt Q13936). The series can be described thus: cell-based.
In series [1] the test system is panel of other molecular targets. As to the method: The results are expressed as a percent inhibition of control specific binding [100-(measured specific binding/control specific binding*100)]. The IC50 values and Hill coefficients (nH) were determined by non-linear regression analysis of the competition curves generated with mean replicate values using Hill equation curve fitting performed with software developed at Cerep (Hill software) and validated by comparison with data generated by the commercial software SigmaPlot® 4.0.

Series [2] is described as follows: Plasma and liver studies after 14 days of repeated oral dose. Type of series: in vivo, C57/BL6 mice. As to conditions: C57/BL6, mouse; for Kp at 14 days: liver/plasma, read-out: Liver to Plasma Ratio.
Series [3] has as its system middle cerebral artery occlusion (MCAO). Put plainly: Neurological behavioral evaluation in MCAO model (18-point system). It counts as in vivo, SD male rats. As to conditions: 48 h and day 7, rat MCAO, vs Edaravone. The source says:
The animals were individually assessed based on the scoring method described in Table 18.

For series [4], the system named is Iba1+CD11b+ double positive microglia. Put plainly: Immunohistochemistry analysis on microglia and leukocytes markers in MCAO brains. Type of series: in vivo, rats. As to conditions: 10 mg/kg, day 7, brain areas CA1, CPu, M1 and S1, vs MCAO or vehicle groups. As to the method:
The animals were anaesthetized with isoflurane (RWD Life Science), perfused and fixed with 4% PFA (Sinopharm Chemical Reagent). The brain tissues were further soaked in 4% PFA […] at 4° C. overnight and then treated with a gradient of sucrose solutions (20-30%, Sinopharm Chemical Reagent) before being embedded with OCT (Leica) and frozen at −80° C. For immunofluorescence staining, the brain slices from primary somatosensory cortex (S1), primary motor cortex (M1), field CA1 of hippocampus (CA1) and caudate putamen (striatum, CPu) were heated for 30 min and then washed with 0.01 M PBS (pH=7.2-7.4, 5 min×3). After washing, the sections were blocked with 0.3% TritonX-100 (Solarbio) in 10% sheep serum (Solarbio) at RT for 1 h. Following removal of the blocking solution, the brain sections were incubated with primary antibodies Iba1 (Proteintech, Cat.10904-1-AP) and CD11b (Thermo Fisher, Cat. MA5-17857) overnight at 4° C. Following 3 washes with 0.01 M PBS (5 min each), the sections were incubated with Backlight plus secondary antibody (Abcam, Cat. ab150113; Cat.ab150080) at RT for 2 h. After 3 washes, the nuclei were stained with 4′, 6-diamidino-2-phenylindole (DAPI, Beyotime Biotech, Cat. C1006). […] The number of Iba1^+CD11b^+ double positive microglia were analyzed by Image J V1.8.0. […]

Chain of CaV1.2 channel (Q13936 whole entry): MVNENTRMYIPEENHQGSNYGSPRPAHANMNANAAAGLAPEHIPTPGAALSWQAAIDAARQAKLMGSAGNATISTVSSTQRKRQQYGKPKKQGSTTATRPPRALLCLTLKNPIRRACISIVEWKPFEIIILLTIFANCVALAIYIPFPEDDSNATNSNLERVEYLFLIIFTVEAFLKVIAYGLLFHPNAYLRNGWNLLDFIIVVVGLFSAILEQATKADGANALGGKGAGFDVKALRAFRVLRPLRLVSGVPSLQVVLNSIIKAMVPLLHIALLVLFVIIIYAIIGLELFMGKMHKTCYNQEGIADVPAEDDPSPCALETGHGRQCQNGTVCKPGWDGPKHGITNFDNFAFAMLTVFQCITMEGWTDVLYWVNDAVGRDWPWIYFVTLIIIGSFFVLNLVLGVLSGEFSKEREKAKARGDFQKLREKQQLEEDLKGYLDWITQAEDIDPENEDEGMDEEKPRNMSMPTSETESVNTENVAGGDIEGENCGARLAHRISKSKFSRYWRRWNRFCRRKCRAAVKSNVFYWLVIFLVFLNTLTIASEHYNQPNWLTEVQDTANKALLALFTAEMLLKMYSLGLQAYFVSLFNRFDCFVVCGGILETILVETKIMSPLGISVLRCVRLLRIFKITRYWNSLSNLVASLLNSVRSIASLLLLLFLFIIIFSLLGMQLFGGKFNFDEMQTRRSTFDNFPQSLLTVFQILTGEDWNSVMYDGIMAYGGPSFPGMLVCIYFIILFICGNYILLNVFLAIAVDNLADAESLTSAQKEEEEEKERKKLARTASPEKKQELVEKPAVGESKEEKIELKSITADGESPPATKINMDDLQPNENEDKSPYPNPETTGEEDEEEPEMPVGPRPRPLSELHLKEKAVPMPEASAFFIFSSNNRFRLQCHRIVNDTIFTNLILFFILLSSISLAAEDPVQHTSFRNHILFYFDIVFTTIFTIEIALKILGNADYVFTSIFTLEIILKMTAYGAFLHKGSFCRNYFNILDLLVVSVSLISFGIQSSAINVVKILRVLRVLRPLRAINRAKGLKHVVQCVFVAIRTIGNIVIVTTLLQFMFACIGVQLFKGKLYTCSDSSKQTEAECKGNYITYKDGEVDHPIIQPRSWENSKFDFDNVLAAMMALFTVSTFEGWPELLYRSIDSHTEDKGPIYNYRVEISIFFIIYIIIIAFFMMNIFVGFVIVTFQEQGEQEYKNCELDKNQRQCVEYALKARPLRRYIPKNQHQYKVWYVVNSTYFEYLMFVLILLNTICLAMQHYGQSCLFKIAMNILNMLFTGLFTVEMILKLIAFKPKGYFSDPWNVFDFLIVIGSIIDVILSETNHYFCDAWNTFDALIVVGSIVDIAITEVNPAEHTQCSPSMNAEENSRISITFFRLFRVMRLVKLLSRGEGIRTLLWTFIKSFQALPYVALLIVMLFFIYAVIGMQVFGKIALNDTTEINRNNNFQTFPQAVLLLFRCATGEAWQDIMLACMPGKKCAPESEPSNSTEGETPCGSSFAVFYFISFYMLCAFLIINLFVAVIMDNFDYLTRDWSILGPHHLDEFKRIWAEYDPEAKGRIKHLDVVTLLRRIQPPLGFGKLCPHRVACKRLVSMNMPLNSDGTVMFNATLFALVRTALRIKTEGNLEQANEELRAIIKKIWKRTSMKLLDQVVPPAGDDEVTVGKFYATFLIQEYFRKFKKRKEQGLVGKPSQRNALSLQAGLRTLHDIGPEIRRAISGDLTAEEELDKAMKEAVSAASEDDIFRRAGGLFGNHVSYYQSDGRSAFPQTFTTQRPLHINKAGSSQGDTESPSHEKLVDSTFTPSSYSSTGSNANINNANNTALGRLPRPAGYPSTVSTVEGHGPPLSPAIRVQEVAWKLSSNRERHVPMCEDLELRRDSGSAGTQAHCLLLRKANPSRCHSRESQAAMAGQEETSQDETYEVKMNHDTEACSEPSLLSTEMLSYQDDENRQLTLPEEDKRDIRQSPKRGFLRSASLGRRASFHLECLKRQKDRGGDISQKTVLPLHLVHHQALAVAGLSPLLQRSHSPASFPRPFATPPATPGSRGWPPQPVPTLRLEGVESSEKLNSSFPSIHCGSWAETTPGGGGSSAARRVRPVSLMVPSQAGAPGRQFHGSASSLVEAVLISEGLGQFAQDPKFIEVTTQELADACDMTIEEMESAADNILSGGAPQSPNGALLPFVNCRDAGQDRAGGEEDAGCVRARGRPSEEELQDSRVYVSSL
T3 sequence (Q12809 whole entry): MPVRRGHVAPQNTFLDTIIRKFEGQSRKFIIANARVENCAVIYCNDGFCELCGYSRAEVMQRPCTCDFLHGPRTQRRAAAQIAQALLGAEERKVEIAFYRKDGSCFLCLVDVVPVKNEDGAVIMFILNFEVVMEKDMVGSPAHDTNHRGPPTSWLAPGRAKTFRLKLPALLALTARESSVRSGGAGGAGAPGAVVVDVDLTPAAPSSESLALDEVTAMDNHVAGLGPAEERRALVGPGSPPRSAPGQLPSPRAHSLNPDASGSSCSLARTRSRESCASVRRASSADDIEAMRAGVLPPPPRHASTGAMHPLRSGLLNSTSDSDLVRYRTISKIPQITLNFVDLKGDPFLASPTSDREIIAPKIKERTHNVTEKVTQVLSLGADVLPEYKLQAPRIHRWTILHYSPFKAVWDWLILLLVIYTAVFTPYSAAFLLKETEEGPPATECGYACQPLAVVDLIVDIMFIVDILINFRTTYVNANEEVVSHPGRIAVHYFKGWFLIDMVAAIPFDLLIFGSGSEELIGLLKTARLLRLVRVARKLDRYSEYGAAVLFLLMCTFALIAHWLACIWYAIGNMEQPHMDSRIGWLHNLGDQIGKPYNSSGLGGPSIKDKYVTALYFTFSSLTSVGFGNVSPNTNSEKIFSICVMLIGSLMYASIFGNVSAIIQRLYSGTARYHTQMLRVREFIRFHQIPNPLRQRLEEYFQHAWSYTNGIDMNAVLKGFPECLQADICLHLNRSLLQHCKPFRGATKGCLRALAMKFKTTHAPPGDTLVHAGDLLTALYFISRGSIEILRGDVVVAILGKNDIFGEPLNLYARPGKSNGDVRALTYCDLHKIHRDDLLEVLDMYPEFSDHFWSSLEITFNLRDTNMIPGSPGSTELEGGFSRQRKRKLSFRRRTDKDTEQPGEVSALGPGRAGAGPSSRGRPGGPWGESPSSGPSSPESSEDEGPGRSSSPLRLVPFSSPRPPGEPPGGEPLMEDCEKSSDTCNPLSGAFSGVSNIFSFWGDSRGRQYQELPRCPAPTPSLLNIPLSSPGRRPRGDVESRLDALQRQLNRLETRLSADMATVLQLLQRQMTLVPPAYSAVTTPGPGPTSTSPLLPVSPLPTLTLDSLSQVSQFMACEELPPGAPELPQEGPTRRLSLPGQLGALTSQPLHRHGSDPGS
Description for CaV1.2 channel: The external solution contained (in mM): 140 TEA-Cl; 2 MgCl2; 10 CaCl2; 10 HEPES; and 5 D-glucose (pH=7.4). The internal solution contained (in mM): 120 CsCl; 1 MgCl2; 10 HEPES; 10 EGTA; 0.3 Na2-GTP; and 4 Mg-ATP (pH=7.2). Following establishment of the whole-cell configuration, CaV1.2 current was recorded at holding membrane potential of −80 mV and then depolarized to +10 mV (test pulse was modified slightly due to lead IV test) for 0.3 s. This protocol was repeated at 20 s intervals to observe the effect of the test compounds on the peak of CaV1.2 current. Each cell was incubated with each test compound for 5 min, or until the current reached steady-state. The compounds were applied at multiple concentrations from low to high. Each cell acted as its own control. The decreases in the peak currents were used to determine the IC50 for CaV1.2 inhibition. Curve-fitting and IC50 calculations were performed using IGOR software.

In the case of `COC(=O)C1=C(C)NC(C)=C(C(=O)OC)C1c1ccc(F)c(C(F)(F)F)c1` [Compound 101], the IC50 against KV3.1 is more than 10 µM; at KV4.2, more than 10 µM; on KV11.1 (hERG), more than 10 µM; against CYP-2D6 (microsomes) it was more than 20 µM; on CaV1.2 channel it was 3.2 µM. Moreover, the “CYP IC50/KCa3.1 IC50” value at CYP-2D6 is reported as 1226.

For the compound `COC(=O)C1=CNC=C(C(=O)OC)C1c1ccc(F)c(C(F)(F)F)c1` [Compound 103, Dimethyl 4-(4-fluoro-3-(trifluoromethyl)phenyl)-1,4-dihydropyridine-3,5-dicarboxylate], the IC50 on KV3.1 is more than 10 µM; at KV4.2, more than 10 µM; at KV11.1 (hERG), more than 10 µM; at CaV1.2 channel, 13.5 µM. Besides, the “CYP IC50/KCa3.1 IC50” value at CYP-2D6 was found to be 3279. For the same compound, the “selectivity for KCa3.1 over other channels and a panel of ~100 molecular targets” value in series [1] was more than 1000 fold. Moreover, the Kp at 14 days turned out to be 85.6 in series [2] (25 mg/kg BID oral 14 days, Female mice); 36 in series [2] (25 mg/kg BID oral 14 days, Male mice); 31.9 in series [2] (50 mg/kg BID oral 14 days, Female mice); 19.6 in [2] (50 mg/kg BID oral 14 days, Male mice). Besides, the concentration at 14 days came to 8420 ng/g in [2] (liver, 25 mg/kg BID oral 14 days, Female mice, read-out: Average Concentration Liver); 10100 ng/g in [2] (liver, 25 mg/kg BID oral 14 days, Male mice, read-out: Average Concentration Liver); 12100 ng/g in series [2] (liver, 50 mg/kg BID oral 14 days, Female mice, read-out: Average Concentration Liver); 17500 ng/g in series [2] (liver, 50 mg/kg BID oral 14 days, Male mice, read-out: Average Concentration Liver); 100 ng/mL in [2] (plasma, 25 mg/kg BID oral 14 days, Female mice, read-out: Average Concentration Plasma); 297 ng/mL in series [2] (plasma, 25 mg/kg BID oral 14 days, Male mice, read-out: Average Concentration Plasma). For the same compound, the concentration at 14 days was 401 ng/mL in series [2] (plasma, 50 mg/kg BID oral 14 days, Female mice, read-out: Average Concentration Plasma) and 929 ng/mL in [2] (plasma, 50 mg/kg BID oral 14 days, Male mice, read-out: Average Concentration Plasma). For the same compound, the neurological behavioral scores entry in [3] is “improves neurological behavior scores more effectively than Edaravone; also recorded: improved neurological behavioral scores”. The “number of Iba1+CD11b+ double positive activated microglia” value in series [4] is reported as “significantly reduced; also recorded: effectively reduced”.
